Assay results reported in ChEMBL document CHEMBL5380794, “Discovery of a Potent and Selective STAT5 PROTAC Degrader with Strong Antitumor Activity In Vivo in Acute Myeloid Leukemia” (J Med Chem, 2023).
Activity calls are given as the source filed them. The rule behind the calls is not given here.

Tests used:
[1] = Apparent volume of distribution in SCID mouse at 150 mg/kg, ip; type: ADME, organism-based; conditions: in vivo
STAT5A/STAT5B [2] = target: T1, STAT5A/STAT5B (Homo sapiens, UniProt P42229+P51692); assay: Induction of STAT5A/5B degradation in human OCI-M2 cells measured for 18 hrs by immunoblotting analysis; type: cell-based
T1 sequence (P42229 whole entry): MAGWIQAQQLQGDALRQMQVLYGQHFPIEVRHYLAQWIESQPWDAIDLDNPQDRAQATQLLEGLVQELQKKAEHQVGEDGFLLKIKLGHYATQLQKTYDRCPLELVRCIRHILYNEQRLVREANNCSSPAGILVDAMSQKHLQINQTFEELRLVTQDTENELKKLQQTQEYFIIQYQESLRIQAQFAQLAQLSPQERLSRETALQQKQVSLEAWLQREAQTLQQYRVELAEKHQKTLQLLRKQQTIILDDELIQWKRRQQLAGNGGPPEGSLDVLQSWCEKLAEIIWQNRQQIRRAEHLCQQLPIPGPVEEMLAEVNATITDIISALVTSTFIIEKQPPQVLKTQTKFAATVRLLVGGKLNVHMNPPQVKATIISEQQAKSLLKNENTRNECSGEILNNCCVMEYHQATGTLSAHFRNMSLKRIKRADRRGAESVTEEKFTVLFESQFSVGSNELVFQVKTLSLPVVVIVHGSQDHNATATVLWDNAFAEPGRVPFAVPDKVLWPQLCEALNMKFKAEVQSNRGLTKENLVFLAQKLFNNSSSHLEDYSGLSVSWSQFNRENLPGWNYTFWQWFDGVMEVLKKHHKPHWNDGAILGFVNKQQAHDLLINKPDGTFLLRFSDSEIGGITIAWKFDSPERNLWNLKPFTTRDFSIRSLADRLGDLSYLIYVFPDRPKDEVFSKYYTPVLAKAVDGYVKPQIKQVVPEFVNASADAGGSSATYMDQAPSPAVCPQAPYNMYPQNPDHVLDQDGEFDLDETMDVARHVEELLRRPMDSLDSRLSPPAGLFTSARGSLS
T1 sequence (P51692 whole entry): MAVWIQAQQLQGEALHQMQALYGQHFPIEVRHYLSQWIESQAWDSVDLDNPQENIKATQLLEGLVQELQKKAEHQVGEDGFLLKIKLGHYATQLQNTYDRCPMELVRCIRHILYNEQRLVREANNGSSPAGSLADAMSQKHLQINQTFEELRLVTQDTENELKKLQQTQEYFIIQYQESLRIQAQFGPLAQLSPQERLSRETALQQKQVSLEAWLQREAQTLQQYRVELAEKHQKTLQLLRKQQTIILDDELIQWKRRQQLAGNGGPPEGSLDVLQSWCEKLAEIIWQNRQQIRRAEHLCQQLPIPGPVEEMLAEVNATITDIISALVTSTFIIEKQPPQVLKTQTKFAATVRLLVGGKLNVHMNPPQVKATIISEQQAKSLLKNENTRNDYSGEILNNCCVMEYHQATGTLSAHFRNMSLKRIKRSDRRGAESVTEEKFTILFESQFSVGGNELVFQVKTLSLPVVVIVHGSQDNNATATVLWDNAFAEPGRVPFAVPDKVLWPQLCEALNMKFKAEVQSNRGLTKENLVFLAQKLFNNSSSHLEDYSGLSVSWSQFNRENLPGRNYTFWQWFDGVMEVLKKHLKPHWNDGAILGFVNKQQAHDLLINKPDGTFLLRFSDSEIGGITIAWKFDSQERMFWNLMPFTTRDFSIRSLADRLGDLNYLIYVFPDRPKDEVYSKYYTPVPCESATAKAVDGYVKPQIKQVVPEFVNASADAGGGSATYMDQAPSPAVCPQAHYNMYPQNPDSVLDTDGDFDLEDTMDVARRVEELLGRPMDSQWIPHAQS

SKNO-1 [3] = assay: Effect on STAT3 level in human SKNO-1 cells upto 5 uM measured for 18 hrs by Western blot analysis; type: functional, cell-based
STAT5A/STAT5B [4] = target: T1, STAT5A/STAT5B; assay: Induction of STAT5A/5B degradation in human Kasumi-3 cells measured for 18 hrs by immunoblotting analysis; type: cell-based
STAT5A/STAT5B [5] = target: T1, STAT5A/STAT5B; assay: Induction of STAT5A/5B degradation in human MV4-11 cells measured for 6 hrs by immunoblotting analysis; type: cell-based
[6] = Antiproliferative activity against human BDCM cells assessed as cell growth inhibition measured for 4 days by celltiter-glo assay; conditions: 96 h
[7] = target: T2, Signal transducer and activator of transcription 5A (Homo sapiens, UniProt P42229); assay: Induction of STAT5 degradation in human SKNO-1 cells assessed as reduction in phosphorylated STAT5 level measured for 18 hrs by immunoblotting analysis; type: cell-based
T2 sequence (P42229 whole entry): T1 sequence (P42229 whole entry)

Mus musculus = assay: In vivo induction of degradation of STAT5 in human MV4-11 cells xenografted in SCID mouse assessed as reduction in STAT5 phosphorylation at Y694 residue at 150 mg/kg, ip measured at 1 hrs by immunoblotting analysis; type: functional, organism-based
[8] = In vivo induction of degradation of STAT5 in human MV4-11 cells xenografted in SCID mouse assessed as reduction in STAT5 phosphorylation at Y694 residue at 150 mg/kg, ip measured at 24 hrs by immunoblotting analysis; type: functional; set-up: scale not given: the % may be the effect or the level left
MV4-11 [9] = assay: Effect on STAT6 level in human MV4-11 cells upto 5 uM measured for 18 hrs by Western blot analysis; type: functional, cell-based
SKNO-1 [10] = assay: Effect on STAT6 level in human SKNO-1 cells upto 5 uM measured for 18 hrs by Western blot analysis; type: functional, cell-based
STAT5A/STAT5B [11] = target: T1, STAT5A/STAT5B; assay: Induction of STAT5A/5B degradation in human BDCM cells measured for 18 hrs by immunoblotting analysis; type: cell-based
[12] = target: T2, Signal transducer and activator of transcription 5A; assay: Induction of STAT5 degradation in human MV4-11 cells assessed as reduction in phosphorylated STAT5 level measured for 6 hrs by immunoblotting analysis; type: cell-based
MOLM-13 = assay: Antiproliferative activity against human MOLM-13 cells assessed as maximal cell growth inhibition measured for 4 days by celltiter-glo assay relative to control; type: functional; conditions: time 4 day
OCI-AML2 = assay: Antiproliferative activity against human OCI-AML2 cells assessed as cell growth inhibition measured for 4 days by celltiter-glo assay; conditions: OCI-AML2, 96 h
MV4-11 [13] = assay: Effect on STAT3 level in human MV4-11 cells upto 5 uM measured for 18 hrs by Western blot analysis; type: functional, cell-based
SKNO-1 [14] = assay: Effect on STAT1 level in human SKNO-1 cells upto 5 uM measured for 18 hrs by Western blot analysis; type: functional, cell-based
[15] = In vivo induction of degradation of STAT5 in human MV4-11 cells xenografted in SCID mouse assessed as reduction in STAT5 levels at 150 mg/kg, ip measured at 1 to 24 hrs by immunoblotting analysis; type: functional; set-up: scale not given: the % may be the effect or the level left; conditions: time 1-24 hrs
Protein cereblon = Protein cereblon (Homo sapiens, UniProt Q96SW2); assay: Binding affinity to GST-tagged wild type human CRBN assessed as inhibition constant by TR-FRET assay
Protein cereblon, sequence (Q96SW2 whole entry): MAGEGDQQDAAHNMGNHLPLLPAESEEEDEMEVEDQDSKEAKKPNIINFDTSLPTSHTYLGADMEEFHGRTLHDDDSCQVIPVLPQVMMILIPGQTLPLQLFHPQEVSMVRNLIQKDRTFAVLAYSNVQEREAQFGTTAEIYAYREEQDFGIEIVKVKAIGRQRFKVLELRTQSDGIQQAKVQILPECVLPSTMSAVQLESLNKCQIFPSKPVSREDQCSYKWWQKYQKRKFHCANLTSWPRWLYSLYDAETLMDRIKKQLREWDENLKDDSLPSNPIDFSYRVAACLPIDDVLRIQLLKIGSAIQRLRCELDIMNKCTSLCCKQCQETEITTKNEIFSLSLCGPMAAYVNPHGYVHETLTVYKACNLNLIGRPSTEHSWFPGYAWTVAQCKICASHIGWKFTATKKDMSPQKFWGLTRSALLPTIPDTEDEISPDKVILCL

SKNO-1 [16] = assay: Effect on STAT2 level in human SKNO-1 cells upto 5 uM measured for 18 hrs by Western blot analysis; type: functional, cell-based
[17] = Half life in SCID mouse at 150 mg/kg, ip; type: ADME, organism-based; conditions: in vivo
STAT5A/STAT5B [18] = target: T1, STAT5A/STAT5B; assay: Induction of STAT5A/5B degradation in human RS4-11 cells measured for 18 hrs by immunoblotting analysis; type: cell-based

## CN(CCCC#Cc1cccc2c1CN(C1CCC(=O)NC1=O)C2=O)C(=O)CCN(C(=O)[C@@H]1CCCN1C(=O)[C@@H](NC(=O)c1cc2cc(C(F)(F)P(=O)(O)O)ccc2s1)C(C)(C)C)c1ccc(-c2nccs2)cc1 (some centres not stated)
[1]
  Vz: 2.1 L/kg
STAT5A/STAT5B [2]
  DC50: 700 nM
SKNO-1 [3]
  Activity: inactive
STAT5A/STAT5B [4]
  DC50: 180 nM
STAT5A/STAT5B [5]
  DC50: 50 nM
[6]
  IC50: > 15000 nM
[7]
  DC50: 70 nM
Mus musculus
  Activity: Active
[8]
  Activity: >70%
MV4-11 [9]
  Activity: inactive
SKNO-1 [10]
  Activity: inactive
STAT5A/STAT5B [11]
  DC50: 410 nM
[12]
  DC50: 60 nM
MOLM-13
  Imax: <5%
OCI-AML2
  IC50: > 15000 nM
MV4-11 [13]
  Activity: inactive
SKNO-1 [14]
  Activity: inactive
[15]
  Activity: >95%
Protein cereblon
  Ki: 170 nM
SKNO-1 [16]
  Activity: inactive
[17]
  half-life: 1.9 h
STAT5A/STAT5B [18]
  DC50: 70 nM
